According to US5583000A, “Protease-binding compounds and methods of use” (priority 1993, dated 1996):
Like-named read-outs stand apart in the source and are kept apart here.

Columns and labels:
[1] = molecular target: T1, HIV-2 protease (Human immunodeficiency virus type 2 subtype A, UniProt P04584); assay: biochemical; details: 1M NaCl
T1 construct: the coding region of the 99-amino acid protease; made in house; host or cells: Saccharomyces cerevisiae strain AB110, plasmid pHIV2PR115
Experimental: The decapeptide was synthesized by conventional solid-state methods. Reactions were carried out and fractionated by HPLC. Conversion of the decapeptide to the two pentapeptides was quantitated by integration of the peak areas and comparison to product standard curves.
Enzymatic Inhibition. […] Each data point was done in triplicate and initial enzyme rates were fit to the Michaelis-Menten equation using a nonlinear regression program ("Enzfitter" from Biosoft).

[2] = in vitro
Experimental: Cytotoxicity. The MTT assay was performed as follows:
The cells were seeded in 96-well plates and grown overnight to near 50% confluency. A serial dilution (1 to 500 μM) of each compound in culture media was prepared and 250 μL/well was added in duplicate. The cells were allowed to grow for various periods of time (6, 24, 48 hours) and any precipitation of compounds in the wells was noted. The assay was performed by removing 200 μL of the culture media and adding 25 μL of MTT solution (2 mg/mL in phosphate buffered saline (PBS)). This was incubated for 4 hours at 37° C. and live cells began to turn purple while the solution remained yellow. To quench the reaction and solubilize the reaction product, 160 μL of acidified isopropanol (4 mL 1N HCl for 96 mL alcohol) were added and the resulting mixture was mixed vigorously to dissolve purple crystals. Absorbance was determined at 550-570 nm on an ELISA plate reader within 0.5-2 hours. […] To obtain the LD50 values for each compound, the concentration at which the absorbance is haft of that for the untreated cells was determined.

[3] = physchem
[4] = molecular target: HIV-1 protease (Human immunodeficiency virus type 1 group M subtype B, UniProt P03369); assay: biochemical
[5] = HIV-1 Protease IC50 (μM) 1M NaCl
[6] = read-out: HIV-1 Protease IC50 (μM) 1M NaCl
[7] = HIV-1 Protease IC50 (μM) 1M NaCl, 1M NaCl

T1 sequence (P04584 514-612 limits assumed): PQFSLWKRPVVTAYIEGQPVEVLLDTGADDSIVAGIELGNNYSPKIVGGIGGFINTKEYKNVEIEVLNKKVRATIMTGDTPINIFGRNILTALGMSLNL

Row | Compound | IC50 [1] [µM] | CC50 at 6 h [2] [µM] | solubility [3] [µM] | HIV-1 Protease Therapeutic Index (LD50 /IC50) [4] | IC50 [4, 5] [µM] | also measured
1 | OC1(c2ccc(Cl)cc2)CCN(CCCC2(c3ccc(F)cc3)SCc3cccc(c3)CS2)CC1 [UCSF21, (1,3-benzenedimethanethioacetal)-4-[4-(p-chlorophenyl)-4-hydroxypiperidinyl]-4'-fluorobutyrophenone] | 75 | > 500 | < 250 | > 20(10) | 25 | 
2 | C[N+]1(CCCC(=O)c2ccc(F)cc2)CCC(O)(c2ccc(Cl)cc2)CC1 (stereo not shown) [UCSF5, 4-[4-(p-chlorophenyl)-4-hydroxy-N-methylpiperidinyl]-4'-fluorobutyrophenone] | > 1000 | > 500 | > 250 | > 6.3 | 79 | 
3 | CC(CCc1ccccc1)N1CCC(O)(c2ccc(Cl)cc2)CC1 (stereo not shown) [UCSF73] | 188 | 360 | < 500 |  | 100 | 
4 | O=C(CCCN1CCC(O)(c2ccc(Cl)cc2)CC1)c1ccccc1-c1ccccc1 [UCSF51, 4-(4-(p-chlorophenyl)-4-hydroxypiperidinyl)-2'-phenylbutyrophenone] | 68 | 45 | < 250 |  | 40 | 
5 | O=C(CCCN1CCC(CO)(c2ccccc2)CC1)c1ccc(F)cc1 [UCSF60] | > 2500 |  | > 500 | > 0.2 | 2500 | CC50 at 4 h [2]: > 500 µM
6 | OC1(c2ccc(Cl)cc2)CCN(CCCC(O)(c2ccccc2)c2ccc(-c3ccccc3)cc2)CC1 (stereo not shown) [UCSF33, 4-[4-(p-chlorophenyl)-4-hydroxypiperidinyl)-1-phenyl-1-(p-phenylphenyl)-butan-1-ol] | 7 | 10 | < 50 | 1.4 | 7 | 
7 | C=C(CCCN1CCC(O)(c2ccc(Cl)cc2)CC1)c1ccc(F)cc1 [UCSF37, 1-[4-(4-chlorophenyl)-4-hydroxypiperidinyl]-4-(4-fluorophenyl)-4-pentene] | 34 | 50 | < 200 | 1.3 | 39 | 
8 | OC1(c2ccc(Cl)cc2)CCN(CCCC2(c3ccc(F)cc3)OCCO2)CC1 [UCSF16, (1,2-ethyloxoacetal)-4-[4-(p-chlorophenyl)-4-hydroxypiperidinyl]-4'-fluorobutyrophenone] |  | 150 | > 250 | 2 |  | IC50 ([1]; read-out: HIV-2 Protease IC50 (μM) 1M NaCl): 238 µM; IC50 [4, 6]: 75 µM
9 | OC1(c2ccc(Cl)cc2)CCN(CCCC2(c3cccc(-c4ccccc4)c3)SCCS2)CC1 [UCSF59] | 7 |  | < 500 |  | 8 | CC50 at 4 h [2]: 45 µM
10 | OC1(c2ccc(Cl)cc2)CCN(CCCC(O)(c2ccccc2)c2ccc(F)cc2)CC1 (stereo not shown) [UCSF24, 4-[4-(p-chlorophenyl)-4-hydroxypiperidinyl]-1-phenyl-1-(p-fluorophenyl)-butan-1-ol] |  | 25 | > 200 | 0.4 | 62 | 
11 | O=C(CCCC1(O)CCC(O)(c2ccc(Cl)cc2)CC1)c1ccccc1 (stereo not shown) [UCSF45] |  |  |  |  |  | IC50 [4, 7]: > 1000 µM
12 | O=C(CCCN1CCC(O)(c2ccccc2)CC1)c1ccccc1 [UCSF34, 4-(4-phenyl-4-hydroxypiperidinyl)butyrophenone] | 288 | > 500 | > 500 | > 1.25 | 400 | 
13 | O=C(CCCN1CCC(O)(c2ccc(Cl)cc2)CC1)c1cccc(-c2ccccc2)c1 [UCSF52, 4-(4-(p-chlorophenyl)-4-hydroxypiperidinyl)-3'-phenylbutyrophenone] | 19 | 10 | < 250 | 0.5 | 20 | 
14 | OCC1(c2ccccc2)CCN(CCCC2(c3ccc(F)cc3)OCCO2)CC1 [UCSF53] |  | 500 | < 50 |  | > 2500 | 
15 | OC1(c2ccc(Cl)cc2)CCN(CCCC(O)(Cc2ccccc2)c2ccc(F)cc2)CC1 (stereo not shown) [UCSF25] | 75 | 20 |  | 0.2 | 87 | 
16 | OC1(c2ccccc2)CCN(CCCC2(c3ccc(F)cc3)OCCO2)CC1 [UCSF28, (1,2-ethyloxoacetal)-4-(4-phenyl-4-hydroxypiperidinyl)-4'-fluorobutyrophenone] |  | > 500 | > 500 | 1.2 | 410 | 
17 | OC1(c2ccc(Cl)cc2)CCN(CCCC2(c3ccccc3)OCCO2)CC1 [UCSF49] | 180 | 120 | < 50 | 1.2 | 100 | 

Row | Compound | IC50 [1] [µM] | CC50 at 6 h [2] [µM] | solubility [3] [µM] | HIV-1 Protease Therapeutic Index (LD50 /IC50) [4] | IC50 [4, 5] [µM] | also measured
18 | C=CC(O)(CCCN1CCC(O)(c2ccc(Cl)cc2)CC1)c1ccc(F)cc1 (stereo not shown) [UCSF40, 6-[4-(4-chlorophenyl)-4-hydroxypiperidinyl]-3-(4-fluorophenyl)hex-1-en-3-ol] | 200 | 100 | < 100 | 1.25 | 80 | 
19 | O=C(CCCN1CCC(O)(c2ccc(Cl)cc2)CC1)c1ccc(-c2ccccc2)cc1 [UCSF36, 4-[4-(p-chlorophenyl)-4-hydroxypiperidinyl]-4'-phenylbutyrophenone] | 53 | 50 | < 50 | 1.4 | 32 | 
20 | CSCC(O)(CCCN1CCC(O)(c2ccc(Cl)cc2)CC1)c1ccc(F)cc1 (stereo not shown) [UCSF39, 5-[4-(4-chlorophenyl)-4-hydroxypiperidinyl]-2-(4-fluorophenyl)pentan-2-ol-1-methylsulfide] | 135 | 90 | > 500 | 1.2 | 75 | 
21 | OC1(c2ccc(Cl)cc2)CCN(CCCC2(c3ccc(F)cc3)SCc3ccccc3CS2)CC1 [UCSF18, (1,2-benzene-dimethanethioacetal)-4-[4-(p-chlorophenyl)-4-hydroxypiperidinyl]-4'-fluorobutyrophenone] | 10 | 35 | > 250 | 1.4 | 25 | 
22 | CC[C@@H]1CSC(CCCN2CCC(O)(c3ccc(Cl)cc3)CC2)(c2ccc(F)cc2)O1 (stereo partly shown) [UCSF79] | 68 | 35 | > 250 |  | 30 | 
23 | O=C(CCCN1CC=C(c2ccc(Cl)cc2)CC1)c1ccc(F)cc1 [UCSF11, 4-[4-(p-chlorophenyl)]-N-[4-(4'-fluorobutyrophenone)]-1,2,5,6-tetrahydropyridine] | 310 | 250 | < 250 |  |  | IC50 ([4]; 1M NaCl): 750 µM; HIV-1 Protease Therapeutic Index (LD50 /IC50) ([4]; LD50/IC50): 0.3
24 | O=C(CCC[N+]1(CCc2ccccc2)CCC(O)(c2ccc(Cl)cc2)CC1)c1ccc(F)cc1 (stereo not shown) [UCSF15, 4-[4-(p-chlorophenyl)-4-hydroxy-[N-(2-phenyl)ethyl]piperidinyl]-4'-fluorobutyrophenone] | 250 |  | > 250 | 0.3 | 150 | 
25 | OC1(c2ccccc2)CCN(CCCC(O)(c2ccccc2)c2ccc3ccccc3n2)CC1 (stereo not drawn) [UCSF32, 4-(4-phenyl-4-hydroxypiperidinyl)-1-phenyl-1-[α-(2-azanaphthyl)]-butan-1-ol] | 80 | 25 |  | 0.4 | 60 | 
26 | ON=C(CCCN1CCC(O)(c2ccc(Cl)cc2)CC1)c1ccc(F)cc1 [UCSF4, 4-[4-(p-chlorophenyl)-4-hydroxypiperidinyl]-4'-fluorobutyrophenone oxime] | 116 |  | > 250 | 0.7 | 100 | 
27 | O=C(CCCN1CCC(O)(c2ccccc2)CC1)c1ccc2ccccc2n1 [UCSF27] |  | 400 | < 200 | 2(1) |  | IC50 [4, 6]: 198 µM
28 | NN=C(CCCN1CCC(O)(c2ccc(Cl)cc2)CC1)c1ccc(F)cc1 [UCSF7, 4-[4-(p-chlorophenyl)-4-hydroxypiperidinyl]-4'-fluorobutyrophenone hydrazone] | 200 |  | > 250 | 0.9 | 100 | 
29 | O=C(CCCN1CCC(c2ccccc2)CC1)c1ccc(F)cc1 [UCSF19] | 323 |  |  |  |  | IC50 [4, 7]: 250 µM
30 | O=C(CCCN1CCC(O)(c2ccc(Cl)cc2)CC1)c1ccncc1 [UCSF35] |  | > 500 | > 500 | > 0.8 |  | IC50 [4, 6]: 650 µM
31 | O=C(CCC[n+]1ccc(-c2ccc(Cl)cc2)cc1)c1ccc(F)cc1 [UCSF17, 4-[4-(p-chlorophenyl)l-N-[4-(4'-fluorobutyrophenone)]pyridinium bromide] |  | 500 | > 250 |  |  | IC50 ([4]; 1M NaCl): 1200 µM; HIV-1 Protease Therapeutic Index (LD50 /IC50) ([4]; LD50/IC50): 0.4
32 | O=C(CCCN1CCC(O)(c2ccc(Cl)cc2)C(O)C1)c1ccc(F)cc1 (stereo not shown) [UCSF20, 4-[4-(p-chlorophenyl)-3,4-dihydroxypiperidinyl)-4'-fluorobutyrophenone] |  |  | > 250 | 0.26 | 675 | 
33 | Cc1ccc(C2(CCC(c3ccccc3)N3CCC(O)(c4ccc(Cl)cc4)CC3)SCCS2)cc1 (stereo not shown) [UCSF48] | 10 |  |  |  | 7 | inhibition of HIV-1 protease at the lower salt concentrations [4]: Very little inhibition; inhibition of HIV-1 protease compared with other compounds [4]: slightly better inhibitor than USCF42 at 1M NaCl
